Data taken from ChEMBL document CHEMBL6134851, “Comparative Study on Covalent and Noncovalent Endogenous Albumin-Binding β-Glucuronidase-Activated SN38 Prodrugs for Antitumor Efficacy” (J Med Chem, 2025).
Calls of active or inactive are those of the source. The calls are words filed in the database; no cut-off is given here.

How the values were obtained:
HCT-116 [1] = assay: Antiproliferative activity against human HCT-116 cells assessed as reduction in cell viability measured after 72 hrs by MTT assay; type: functional, cell-based
A549 [2] = assay: Antiproliferative activity against human A549 cells assessed as reduction in cell viability measured after 72 hrs by MTT assay; type: functional, cell-based
4T1 [3] = assay: Antiproliferative activity against mouse 4T1 cells assessed as reduction in cell viability measured after 72 hrs by MTT assay; type: functional, cell-based
HepG2 [4] = assay: Antiproliferative activity against human HepG2 cells assessed as reduction in cell viability measured after 72 hrs by MTT assay; type: functional, cell-based
HCT-116 [5] = assay: Antiproliferative activity against human HCT-116 cells assessed as reduction in cell viability measured after 72 hrs in presence of beta-glucuronidase by MTT assay; type: functional, cell-based
A549 [6] = assay: Antiproliferative activity against human A549 cells assessed as reduction in cell viability measured after 72 hrs in presence of beta-glucuronidase by MTT assay; type: functional, cell-based
4T1 [7] = assay: Antiproliferative activity against mouse 4T1 cells assessed as reduction in cell viability measured after 72 hrs in presence of beta-glucuronidase by MTT assay; type: functional, cell-based
HepG2 [8] = assay: Antiproliferative activity against human HepG2 cells assessed as reduction in cell viability measured after 72 hrs in presence of beta-glucuronidase by MTT assay; type: functional, cell-based
[9] = Drug uptake in human HCT-116 cells assessed as increase in fluorescence intensity measured after 1 to 6 hrs by confocal microscopy analysis; type: ADME, cell-based; details: time 1-6 hrs
HCT-116 [10] = assay: Antiproliferative activity against human HCT-116 cells assessed as reduction in cell viability treated with HSA bound prodrug measured after 72 hrs by MTT assay; type: functional, cell-based
A549 [11] = assay: Antiproliferative activity against human A549 cells assessed as reduction in cell viability treated with HSA bound prodrug measured after 72 hrs by MTT assay; type: functional, cell-based
BXPC-3 [12] = assay: Antiproliferative activity against human BXPC-3 cells assessed as reduction in cell viability treated with HSA bound prodrug measured after 72 hrs by MTT assay; type: functional, cell-based
HepG2 [13] = assay: Antiproliferative activity against human HepG2 cells assessed as reduction in cell viability treated with HSA bound prodrug measured after 72 hrs by MTT assay; type: functional, cell-based
4T1 [14] = assay: Antiproliferative activity against mouse 4T1 cells assessed as reduction in cell viability treated with HSA bound prodrug measured after 72 hrs by MTT assay; type: functional, cell-based
HCT-116 [15] = assay: Antiproliferative activity against human HCT-116 cells assessed as reduction in cell viability treated with HSA bound prodrug measured after 72 hrs in presence of beta-glucuronidase by MTT assay; type: functional, cell-based
A549 [16] = assay: Antiproliferative activity against human A549 cells assessed as reduction in cell viability treated with HSA bound prodrug measured after 72 hrs in presence of beta-glucuronidase by MTT assay; type: functional, cell-based
BXPC-3 [17] = assay: Antiproliferative activity against human BXPC-3 cells assessed as reduction in cell viability treated with HSA bound prodrug measured after 72 hrs in presence of beta-glucuronidase by MTT assay; type: functional, cell-based
HepG2 [18] = assay: Antiproliferative activity against human HepG2 cells assessed as reduction in cell viability treated with HSA bound prodrug measured after 72 hrs in presence of beta-glucuronidase by MTT assay; type: functional, cell-based
4T1 [19] = assay: Antiproliferative activity against mouse 4T1 cells assessed as reduction in cell viability treated with HSA bound prodrug measured after 72 hrs in presence of beta-glucuronidase by MTT assay; type: functional, cell-based
[20] = Cmax in female BALB/c mouse at 25 mg/kg measured up to 120 hrs by HPLC analysis; type: ADME, organism-based; details: in vivo
[21] = Toxicity in female BALB/cA nude mouse assessed as necrosis in tumor tissue at 25 mg/kg, iv measured after 24 hrs by H and E staining based analysis; type: organism-based; details: in vivo
[22] = Toxicity in female BALB/cA nude mouse assessed as inflammatory response in liver at 25 mg/kg, iv measured after 24 hrs by H and E staining based analysis; type: organism-based; details: in vivo
[23] = Toxicity in female BALB/cA nude mouse assessed as appearance of inflammatory lesions in liver at 25 mg/kg, iv administered once a week for 35 days by H and E staining based analysis; type: organism-based; details: in vivo, 840 h, time 35 day
[24] = Toxicity in female BALB/cA nude mouse assessed as fibrotic changes in heart at 25 mg/kg, iv administered once a week for 35 days by H and E staining based analysis; type: organism-based; details: in vivo, 840 h, time 35 day
[25] = Toxicity in female BALB/cA nude mouse assessed as fibrotic changes in liver at 25 mg/kg, iv administered once a week for 35 days by H and E staining based analysis; type: organism-based; details: in vivo, 840 h, time 35 day
[26] = Toxicity in female BALB/cA nude mouse assessed as fibrotic changes in kidney at 25 mg/kg, iv administered once a week for 35 days by H and E staining based analysis; type: organism-based; details: in vivo, 840 h, time 35 day
Albumin [27] = molecular target: T1, Albumin (Homo sapiens, UniProt P02768); assay: Binding affinity to human serum albumin assessed as binding rate measured within 4 mins by HPLC analysis relative to control; type: ADME; details: isolated protein
[28] = Prodrug release in human plasma assessed as (S)-4,11-diethyl-4,9-dihydroxy-1,12-dihydro-14H-pyrano[3',4':6,7]indolizino[1,2-b]quinoline-3,14(4H)-dione release measured after 7 days relative to control; type: ADME, cell-free; details: 168 h, time 7 day
[29] = Half life in female BALB/c mouse at 38 mg/kg measured up to 168 hrs by HPLC analysis; type: ADME, organism-based; details: in vivo
[30] = Clearance in female BALB/c mouse at 38 mg/kg measured up to 168 hrs by HPLC analysis; type: ADME, organism-based; details: in vivo
HCT-116 [31] = assay: Antitumor activity against human HCT-116 cells xenografted in female BALB/cA nude mouse model assessed as relative tumor proliferation rate at 38 mg/kg, iv administered twice per week measured after 24 days relative to control; type: functional; details: time 24 day
[32] = Toxicity in female BALB/cA nude mouse assessed as effect on body weight loss at 38 mg/kg, iv administered twice per week measured after 107 days; type: organism-based; details: in vivo, 2568 h, time 107 day
[33] = Toxicity in female BALB/cA nude mouse assessed as effect on body weight loss at 38 mg/kg, iv administered once a week for 35 days; type: organism-based; details: in vivo, 840 h, time 35 day
[34] = Toxicity in female BALB/cA nude mouse assessed as appearance of inflammatory lesions in heart at 38 mg/kg, iv administered once a week for 35 days by H and E staining based analysis; type: organism-based; details: in vivo, 840 h, time 35 day
[35] = Toxicity in female BALB/cA nude mouse assessed as appearance of inflammatory lesions in spleen at 38 mg/kg, iv administered once a week for 35 days by H and E staining based analysis; type: organism-based; details: in vivo, 840 h, time 35 day
[36] = Toxicity in female BALB/cA nude mouse assessed as fibrotic changes in tumor at 38 mg/kg, iv administered once a week for 35 days by H and E staining based analysis; type: organism-based; details: in vivo, 840 h, time 35 day
[37] = Toxicity in female BALB/cA nude mouse assessed as fibrotic changes in liver at 38 mg/kg, iv administered once a week for 35 days by H and E staining based analysis; type: organism-based; details: in vivo, 840 h, time 35 day
[38] = Toxicity in female BALB/cA nude mouse assessed as fibrotic changes in spleen at 38 mg/kg, iv administered once a week for 35 days by H and E staining based analysis; type: organism-based; details: in vivo, 840 h, time 35 day
Albumin [39] = molecular target: T1, Albumin; assay: Binding affinity to human serum albumin assessed as binding rate measured after 24 mins by HPLC analysis relative to control; type: ADME; details: isolated protein, 0.4 h

T1 sequence (P02768 whole entry): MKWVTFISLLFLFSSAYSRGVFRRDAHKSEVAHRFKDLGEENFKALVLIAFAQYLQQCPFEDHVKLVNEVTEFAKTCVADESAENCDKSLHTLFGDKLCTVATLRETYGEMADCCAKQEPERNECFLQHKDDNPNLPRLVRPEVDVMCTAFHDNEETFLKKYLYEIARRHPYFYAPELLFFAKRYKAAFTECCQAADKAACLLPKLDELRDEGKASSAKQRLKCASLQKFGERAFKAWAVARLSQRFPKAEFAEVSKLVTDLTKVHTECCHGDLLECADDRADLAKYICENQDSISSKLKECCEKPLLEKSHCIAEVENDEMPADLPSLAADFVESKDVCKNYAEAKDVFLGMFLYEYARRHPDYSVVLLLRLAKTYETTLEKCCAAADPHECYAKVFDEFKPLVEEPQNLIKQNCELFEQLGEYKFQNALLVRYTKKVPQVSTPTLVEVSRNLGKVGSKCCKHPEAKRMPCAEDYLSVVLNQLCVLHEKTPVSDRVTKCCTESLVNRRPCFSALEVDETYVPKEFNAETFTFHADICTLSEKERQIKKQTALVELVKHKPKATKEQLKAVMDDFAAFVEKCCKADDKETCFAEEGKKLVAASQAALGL

Structure (SMILES) | Activity (HCT-116 [1]) | Activity (A549 [2]) | Activity (4T1 [3]) | Activity (HepG2 [4]) | Activity (HCT-116 [5]) | Activity (A549 [6]) | Activity (4T1 [7]) | Activity (HepG2 [8]) | Drug uptake [9] | Activity (HCT-116 [10]) | Activity (A549 [11]) | Activity (BXPC-3 [12]) | Activity (HepG2 [13]) | Activity (4T1 [14]) | Activity (HCT-116 [15]) | Activity (A549 [16]) | Activity (BXPC-3 [17]) | Activity (HepG2 [18]) | Activity (4T1 [19]) | Activity (Albumin [27]) [%] | also measured
CCc1c2c(nc3ccc(OCc4ccc(O[C@@H]5O[C@H](C(=O)O)[C@@H](O)[C@H](O)[C@H]5O)c(NC(=O)CCNC(=O)CCCCCN5C(=O)C=CC5=O)c4)cc13)-c1cc3c(c(=O)n1C2)COC(=O)[C@]3(O)CC | Not active; Compound Showed Lower Cytotoxicity Compared To Sn38 | Not active; Compound Showed Lower Cytotoxicity Compared To Sn38 | Not active; Compound Showed Lower Cytotoxicity Compared To Sn38 | Not active; Compound Showed Lower Cytotoxicity Compared To Sn38 | Active | Active | Active | Active | Active | inactive | inactive | inactive | inactive | inactive | Active | Active | Active | Active | Active | 99 | Cmax [20]: 50.7 µg/mL; Activity [21]: Toxic; Activity [22]: Toxic; Activity [23]: Non-toxic; Activity [24]: Non-toxic; Activity [25]: Non-toxic; Activity [26]: Non-toxic; Drug metabolism [28]: metabolite_notdetected
CCc1c2c(nc3ccc(OCc4ccc(O[C@@H]5O[C@H](C(=O)O)[C@@H](O)[C@H](O)[C@H]5O)c(NC(=O)CCNC(=O)COCCOCCNC(=O)COCCOCCNC(=O)CC[C@H](NC(=O)CCCCCCCCCCCCCCCCC(=O)O)C(=O)O)c4)cc13)-c1cc3c(c(=O)n1C2)COC(=O)[C@]3(O)CC | Not active; Compound Showed Lower Cytotoxicity Compared To Sn38 | Not active; Compound Showed Lower Cytotoxicity Compared To Sn38 | Not active; Compound Showed Lower Cytotoxicity Compared To Sn38 | Not active; Compound Showed Lower Cytotoxicity Compared To Sn38 | Active | Active | Active | Active | Active | inactive | inactive | inactive | inactive | inactive | Active | Active | Active | Active | Active | 95 | half-life [29]: 3.65 h; clearance [30]: 0.753 mL/min/kg; Activity (HCT-116 [31]): 10.59%; Activity [32]: Toxic; Activity [33]: Non-toxic; Activity [34]: Non-toxic; Activity [35]: Non-toxic; Activity [36]: Non-toxic; Activity [37]: Non-toxic; Activity [38]: Non-toxic; Activity (Albumin [39]): 94%; Drug metabolism [28]: metabolite_notdetected
